{"source": "paper PMC6401633", "about": "“Evidence for Effective Multiple K^+-Current Inhibitions by Tolvaptan, a Non-peptide Antagonist of Vasopressin V2 Receptor” (Frontiers in Pharmacology, 2019)", "target": "T1, large-conductance Ca2+-activated K+ (BKCa) channel (Rattus norvegicus, UniProt Q62976)", "T1 construct": "gene Kcnma1; native channel in inside-out membrane patches of GH3 cells", "T1 sequence (Q62976 whole entry)": "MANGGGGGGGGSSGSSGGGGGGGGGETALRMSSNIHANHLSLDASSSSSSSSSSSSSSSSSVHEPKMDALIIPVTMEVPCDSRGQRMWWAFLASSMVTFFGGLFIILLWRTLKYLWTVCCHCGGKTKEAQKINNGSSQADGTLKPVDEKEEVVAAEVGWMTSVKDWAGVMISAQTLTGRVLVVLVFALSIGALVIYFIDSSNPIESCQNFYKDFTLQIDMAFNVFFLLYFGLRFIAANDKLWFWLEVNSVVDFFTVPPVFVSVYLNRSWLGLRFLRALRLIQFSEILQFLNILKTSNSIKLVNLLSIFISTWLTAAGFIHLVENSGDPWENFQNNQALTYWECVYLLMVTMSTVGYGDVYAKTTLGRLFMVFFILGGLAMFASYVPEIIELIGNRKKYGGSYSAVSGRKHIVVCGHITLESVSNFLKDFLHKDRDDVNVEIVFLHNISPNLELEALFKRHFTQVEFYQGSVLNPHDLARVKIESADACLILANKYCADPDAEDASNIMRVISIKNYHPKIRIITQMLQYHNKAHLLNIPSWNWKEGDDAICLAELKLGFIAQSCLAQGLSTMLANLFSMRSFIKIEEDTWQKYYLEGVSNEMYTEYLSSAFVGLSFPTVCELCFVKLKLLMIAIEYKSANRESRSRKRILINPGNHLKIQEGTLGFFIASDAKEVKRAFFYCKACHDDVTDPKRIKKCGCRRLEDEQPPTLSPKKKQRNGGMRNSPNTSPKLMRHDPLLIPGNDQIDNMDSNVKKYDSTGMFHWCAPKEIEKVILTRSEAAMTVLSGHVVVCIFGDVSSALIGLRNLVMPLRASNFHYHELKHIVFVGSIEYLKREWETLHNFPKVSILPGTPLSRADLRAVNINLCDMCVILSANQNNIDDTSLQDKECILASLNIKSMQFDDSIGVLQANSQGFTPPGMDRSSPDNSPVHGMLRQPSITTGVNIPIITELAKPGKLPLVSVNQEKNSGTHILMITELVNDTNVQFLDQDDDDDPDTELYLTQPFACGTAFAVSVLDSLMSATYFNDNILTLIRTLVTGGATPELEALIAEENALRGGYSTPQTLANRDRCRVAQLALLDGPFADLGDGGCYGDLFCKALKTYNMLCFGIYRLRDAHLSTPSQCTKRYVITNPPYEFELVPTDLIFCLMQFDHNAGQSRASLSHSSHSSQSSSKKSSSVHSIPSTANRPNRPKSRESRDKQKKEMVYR", "assay": "single-channel patch clamp, inside-out; open probability […] to […] at […], no significant change at […]", "format": "cell-based"}
{"smiles": "Cc1ccccc1C(=O)Nc1ccc(C(=O)N2CCCC(O)c3cc(Cl)ccc32)c(C)c1", "note": "(stereo not shown) [TLV, N-[4-[(7-chloro-2,3,4,5-tetrahydro-5-hydroxy-1H-1-benzazepin-1-yl)carbonyl]-3-methylphenyl]-2-methylbenzamide]", "values": [{"measurement": "single-channel patch clamp, inside-out; open probability 0.0191 to 0.0143 at 30", "value": 30, "unit": "µM"}]}
